Results published in publication PMC7093416, “Selective USP7 inhibition elicits cancer cell killing through a p53-dependent mechanism” (Scientific Reports, 2020).

Tests used:
[1] = molecular target: T1, ANXA5 (Homo sapiens, UniProt P08758); assay: XL177A-DTB chemoproteomic profiling with XL177A competition, ANXA5; type: binding; conditions: ANXA5 reporter ion intensity
T1 construct: endogenous in cells; host or cells: HEK 293AD lysate
T1 sequence (P08758 1-320): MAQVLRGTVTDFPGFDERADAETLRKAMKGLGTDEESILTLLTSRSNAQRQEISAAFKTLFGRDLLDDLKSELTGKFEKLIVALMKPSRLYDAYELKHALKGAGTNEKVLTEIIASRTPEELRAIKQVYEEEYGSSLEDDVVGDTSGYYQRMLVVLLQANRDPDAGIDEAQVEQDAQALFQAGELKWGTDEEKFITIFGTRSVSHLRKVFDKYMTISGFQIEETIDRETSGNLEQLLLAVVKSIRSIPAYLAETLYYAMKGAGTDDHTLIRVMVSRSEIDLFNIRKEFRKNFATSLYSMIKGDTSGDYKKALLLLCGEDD
Method: HEK 293AD cells were lysed as described above, and the lysate was cleared by centrifugation. Samples were diluted to 10 mg/mL, and 200 μL lysate (2 mg protein total) was incubated with the indicated concentrations of XL177A for 4 hours at RT, then 2 μM of WH114A for 4 additional hours. SDS was added to a final concentration of 1.2% (27.2 μL of a 10% stock), and denatured by heating to 80 °C for 5 minutes. After cooling to RT, 1125 μL 1X PBS was added to dilute the final SDS concentration to 0.2%. 50 μL streptavidin agarose slurry was added to each sample, followed by incubation at RT for 3 hours. After streptavidin enrichment, samples were washed vigorously (2×0.2% SDS, 3x PBS, 3x ddH2O). After the final wash, all supernatant was removed using a flat-bottom tip, and the resin was flash frozen and stored at −80 °C until workup for TMT labeling.
To remove rapigest, recovered supernatants were acidified with 10% TFA, incubated at 37 °C for 45 minutes, and centrifuged at 14,000 rpm for 15 minutes at 4 °C. Peptides were then desalted by C18, and dried by vacuum centrifugation. Dried peptides were reconstituted in 50 mM pH8.0 TEAB and labeled with TMT reagent at RT for 1 hour. TMT reactions were pooled and treated with hydroxylamine according to the manufacturer’s instructions. Peptide mixtures were then dried, reconstituted in 50 mM ammonium bicarbonate and desalted by SP3[53]. Eluted peptides were then analyzed by nanoflow LC-MS/MS as described[64] with a NanoAcquity UPLC system (Waters, Milford, MA) interfaced to a QExactive HF mass spectrometer (Thermofisher Scientific, San Jose, CA). TMT labeled peptides were injected onto a precolumn (4 cm POROS 10R2, Applied Biosystems, Framingham, MA), resolved on an analytical column (30 µm I.D. × 50 cm packed with 5 µm Monitor C18) and introduced to the mass spectrometer by ESI (spray voltage = 3.5 kV, flow rate ~30 nL/min). The mass spectrometer was operated in data dependent mode such that the 15 most abundant ions in each MS scan (m/z 300–2000, 120 K resolution, target = 3E6, lock mass for 445.120025 enabled) were subjected to MS/MS (m/z 100–2000, 30 K resolution, target = 1E5, max fill time = 100 ms). Dynamic exclusion was selected with a repeat count of 1 and an exclusion time of 30 seconds. MS/MS data was extracted to.mgf using mulitplierz scripts[54],[55] and searched against a forward-reverse human NCBI refseq database using Mascot version 2.6. Search parameters specified fixed carbamidomethylation of cysteine, fixed N-terminal and lysine TMT labelling, and variable oxidation (methionine). Additional multiplierz scripts were used to filter results to 1% FDR and derive protein-level aggregate reporter ion intensities using peptides mapping uniquely into the genome.

[2] = tested on: panel of 41 recombinant DUBs; assay: In vitro DUB profiling (Ubiquigent, Ub-Rho), other DUBs of the panel; type: biochemical; conditions: 1 µM, 15-minute pre-treatment
Method: Compounds were screened using the Ubiquigent Drug Profiler SPT system (www.ubiquigent.com/drug-discovery-services/dubprofiler/). Each of 41 purified DUBs was incubated with compound for 15 minutes, then ubiquitin rhodamine 110 (Ub-Rho) was added and percent inhibition determined based on fluorescence relative to a DMSO control.

[3] = XL177A-DTB pulldown, HEK293AD lysate pre-treated 100nM XL177A
[4] = XL177A-DTB pulldown, HEK293AD lysate pre-treated 1uM XL177A
[5] = XL177A-DTB pulldown, HEK293AD lysate pre-treated 10uM XL177A
[6] = average of Run 1 and Run 2, 100nM XL177A
[7] = average of Run 1 and Run 2, 1uM XL177A
[8] = average of Run 1 and Run 2, 10uM XL177A

Run 1 100nM 1 [1, 3]: 178152
Run 1 100nM 2 [1, 3]: 165955
Run 1 100nM 3 [1, 3]: 128000
Run 2 100nM 1 [1, 3]: 93111
Run 2 100nM 2 [1, 3]: 89444
Run 2 100nM 3 [1, 3]: 79751
Run 1 1uM 1 [1, 4]: 144604
Run 1 1uM 2 [1, 4]: 674321
Run 1 1uM 3 [1, 4]: 223998
Run 2 1uM 1 [1, 4]: 92176
Run 2 1uM 2 [1, 4]: 333280
Run 2 1uM 3 [1, 4]: 123099
Run 1 10uM 1 [1, 5]: 147137
Run 1 10uM 2 [1, 5]: 166473
Run 2 10uM 1 [1, 5]: 88314
Run 2 10uM 2 [1, 5]: 102591
AVE 100nM 1 [1, 6]: 135632
AVE 100nM 2 [1, 6]: 127700
AVE 100nM 3 [1, 6]: 103876
AVE 1uM 1 [1, 7]: 118390
AVE 1uM 2 [1, 7]: 503800
AVE 1uM 3 [1, 7]: 173548
AVE 10uM 1 [1, 8]: 117726
AVE 10uM 2 [1, 8]: 134532
Structure (SMILES): CN1CCN(CCC(=O)Nc2ccc3c(=O)n(CC4(O)CCN(C(=O)[C@@H](CCCNC(=O)c5ccc6c(Cl)c7c(nc6c5)CCCC7)Cc5ccccc5)CC4)cnc3c2)CC1 [XL177A]
activity against any other DUBs [2]: did not exhibit significant activity
